Assay [1] concerns the target T1, 17β-HSD1 (Homo sapiens, UniProt P14061).
T1 construct: endogenous in cells; host or cells: T-47D
T1 sequence (P14061 1-328): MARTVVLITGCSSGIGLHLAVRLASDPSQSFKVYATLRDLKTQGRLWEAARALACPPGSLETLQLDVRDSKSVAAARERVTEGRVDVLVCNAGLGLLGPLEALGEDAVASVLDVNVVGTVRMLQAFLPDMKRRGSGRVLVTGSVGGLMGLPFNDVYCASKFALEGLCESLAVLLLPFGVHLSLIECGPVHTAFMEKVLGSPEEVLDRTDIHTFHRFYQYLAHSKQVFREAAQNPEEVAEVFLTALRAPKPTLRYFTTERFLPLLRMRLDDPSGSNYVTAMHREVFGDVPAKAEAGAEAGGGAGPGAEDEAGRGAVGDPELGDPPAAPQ
Nature of the assay: Inhibition of 17β-HSD1 in T-47D intact cells (E1 into E2). Type of assay: cell-based. The following applies: T47D; for inhibition at 1 µM: read-out: Inhibition (1 μM). As for the experimental part: T-47D cells were seeded in a 24-well plate (3000 cells/well) in medium supplemented with insulin (50 ng/mL) and 5% dextran-coated charcoal treated FBS rather than 10% FBS to remove remaining hormones. […] Each inhibitor was assessed in triplicate. After incubation, the culture medium was removed and labelled steroids (E1 and E2) extracted with 1 mL of diethyl ether. The organic phases were separated and evaporated to dryness using nitrogen. Residues were dissolved in dichloromethane and dropped on silica gel thin layer chromatography plates (EMD Chemicals Inc., Gibbstown, N.J., USA) and eluted with a toluene/acetone (4:1) solvent system. Substrate [^14C]-E1 and metabolite [^14C]-E2 were identified by comparison with reference steroids and quantified using a Storm 860 system (Molecular Dynamics, Sunnyvale, Calif., USA).
T-47D cells were seeded in a 24-well plate (3000 cells/well) in 990 μL of medium supplemented with insulin (50 ng/mL) and 5% dextran-coated charcoal-treated FBS, which was used rather than untreated 10% FBS, to remove the remaining steroid hormones. […] The final concentration of ethanol in the well was adjusted to 0.1%. Additionally, 5 μL of a solution of [^14C]-estrone (American Radiolabeled Chemicals, Inc., St. Louis, Mo., USA) was added to obtain a final concentration of 60 nM. […] After incubation, the culture medium was removed and labeled steroids (E1 and E2) were extracted with 1 mL of diethyl ether. The organic phases were evaporated to dryness with nitrogen. Residues were dissolved in dichloromethane and dropped on silica gel thin layer chromatography plates (EMD Chemicals Inc., Gibbstown, N.J., USA) and eluted with toluene/acetone (4:1) as solvent system. Substrate [^14C]-E1 and metabolite [^14C]-E2 were identified by comparison with reference steroids (E1 and E2) and quantified using the Storm 860 system (Molecular Dynamics, Sunnyvale, Calif., USA).

Assay [2] concerns the target T2, 17β-HSD3 (Homo sapiens, UniProt P37058).
T2 construct: expressed in transfected cells; host or cells: HEK-293 (homogenate)
T2 sequence (P37058 1-310): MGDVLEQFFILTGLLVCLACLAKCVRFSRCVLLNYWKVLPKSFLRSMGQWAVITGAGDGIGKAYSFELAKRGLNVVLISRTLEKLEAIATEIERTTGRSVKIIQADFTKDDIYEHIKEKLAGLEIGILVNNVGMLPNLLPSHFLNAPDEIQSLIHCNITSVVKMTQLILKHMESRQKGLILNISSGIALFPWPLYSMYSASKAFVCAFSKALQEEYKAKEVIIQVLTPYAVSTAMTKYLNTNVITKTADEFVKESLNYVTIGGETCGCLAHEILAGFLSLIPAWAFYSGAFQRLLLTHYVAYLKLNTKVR
Nature of the assay: Inhibition of 17β-HSD3 in homogenated HEK-293 cells. The following applies: for inhibition at 0.01 µM: read-out: Homo (%) (0.01 μM), Table 4; for inhibition at 0.1 µM: read-out: Homo (%) (0.1 μM), Table 4; for inhibition at 1 µM: read-out: Homo (%) (1.0 μM), Table 4. Type of assay: biochemical.

In assay [3] the target is T2, 17β-HSD3. Nature of the assay: Inhibition of 17β-HSD3 in intact HEK-293 cells. Type of assay: cell-based. The following applies: 0.1 μM; for Intact cells (%) (0.1 μM), tested in another experiment: Table 4, footnote b; for inhibition at 0.1 µM: HEK293, 1 h, read-out: Intact cells (%) (0.1 μM), Table 4.
The mark [4] stands for this setting: Table 2 (17β-HSD1), [14C]-E1 60 nM, T-47D intact cells, 0.1 μM, read-out: Inhibition (0.1 μM).
[5] abbreviates: Table 2 (17β-HSD1), [14C]-E1 60 nM, T-47D intact cells, 1 μM.

SMILES strings stand for the structures. Where two headings read alike, the source gives them in different places.

In the case of `C[C@]12CC[C@@H]3c4ccc(CCCl)cc4CC[C@H]3[C@@H]1C[C@H](Cc1cccc(C(N)=O)c1)[C@@H]2O` [Compound 9, 3-{[(16β,17β)-3-(2-chloroethyl)-17-hydroxyestra-1(10),2,4-trien-16-yl]methyl}benzamide], the inhibition at 0.1 µM in assay [1] (read-out: Inhibition (0.1 μM)) stood at 55%.
On the same count and under the same terms, the same measure for `C[C@]12CC[C@@H]3c4ccc(CCI)cc4CC[C@H]3[C@@H]1C[C@H](Cc1cccc(C(N)=O)c1)[C@@H]2O` [Compound 10, 3-{[(16β,17β)-17-hydroxy-3-(2-iodoethyl)estra-1(10),2,4-trien-16-yl]methyl}benzamide]: 7%.
For `C[C@]12CC[C@@H]3c4ccc(OCCBr)cc4CC[C@H]3[C@@H]1C[C@H](Cc1cccc(C(N)=O)c1)[C@@H]2O` [Compound 15, 3-{[(16β,17β)-3-(2-bromoethoxy)-17-hydroxyestra-1(10),2,4-trien-16-yl]methyl}benzamide], the inhibition at 0.1 µM in assay [1] (setting [4]) worked out at 39%. The inhibition at 1 µM in assay [1] (setting [5]) amounted to 81%.
`C[C@]12CC[C@@H]3c4ccc(CCc5ccccc5)cc4CC[C@H]3[C@@H]1C[C@H](Cc1cccc(C(N)=O)c1)[C@@H]2O` [Compound 19, 3-{[(16β,17β)-17-hydroxy-3-(2-phenylethyl)estra-1(10),2,4-trien-16-yl]methyl}benzamide]: the inhibition at 0.1 µM in assay [1] (read-out: Inhibition (0.1 μM)) turned out to be 13%.
Turning to `C[C@]12CC[C@@]3(C[C@@H]1CC[C@@H]1[C@@H]2CC[C@]2(C)C(=O)CC[C@@H]12)CN(CCN1CCCCC1)C(=O)O3` [Compound 23c, (3R,5S,8R,9S,10S,13S,14S)-10,13-dimethyl-3′-[2-(piperidin-1-yl)ethyl]tetrahydrodecahydro-2′H-spiro[cyclopenta[α]phenanthrene-3,5′-[1,3]oxazolidine]-2′,17(2H)-dione], in assay [2], the inhibition at 0.01 µM is 0%, the inhibition at 0.1 µM worked out at 0% and the inhibition at 1 µM was 21%. Moreover, the “Intact cells (%) (0.1 μM), tested in another experiment” value in assay [3] was 10^b %.
Turning to `CCN(CCN1C[C@]2(CC[C@@]3(C)[C@@H](CC[C@@H]4[C@@H]3CC[C@]3(C)C(=O)CC[C@@H]43)C2)OC1=O)C1CCCCC1` [Compound 23e, (3R,5S,8R,9S,10S,13S,14S)-3′-{2-[cyclohexyl(ethyl)amino]ethyl}-10,13-dimethyltetradecahydro-2′H-spiro[cyclopenta[α]phenanthrene-3,5′-[1,3]oxazolidine]-2′,17(2H)-dione], in assay [2], the inhibition at 0.01 µM was found to be 2%, the inhibition at 0.1 µM amounted to 21% and the inhibition at 1 µM is 72%. The inhibition at 0.1 µM in assay [3] was 2%.
With `CCCN(CCC)CCN1C[C@]2(CC[C@@]3(C)[C@@H](CC[C@@H]4[C@@H]3CC[C@]3(C)C(=O)CC[C@@H]43)C2)OC1=O` [Compound 23f, (3R,5S,8R,9S,10S,13S,14S)-3′-[2-(dipropylamino)ethyl]-10,13-dimethyltetradecahydro-2′H-spiro[cyclopenta[α]phenanthrene-3,5′-[1,3]oxazolidine]-2′,17(2H)-dione], in assay [2], the inhibition at 0.01 µM turned out to be 0%, the inhibition at 0.1 µM was 10% and the inhibition at 1 µM worked out at 62%. Further, in assay [3], the “Intact cells (%) (0.1 μM), tested in another experiment” value is 8^b %.
For the molecule `CCCN(CCN1C[C@]2(CC[C@@]3(C)[C@@H](CC[C@@H]4[C@@H]3CC[C@]3(C)C(=O)CC[C@@H]43)C2)OC1=O)C(=O)CC` [Compound 23g, N-{(3R,5S,8R,9S,10S,13S,14S)-10,13-dimethyl-2′,17-dioxohexadecahydro-3′H-spiro[cyclopenta[α]phenanthrene-3,5′-[1,3]oxazolidine-3′-yl]ethyl}-N-propylpropanamide], in assay [2], the inhibition at 0.01 µM is 0%, the inhibition at 0.1 µM came to 35% and the inhibition at 1 µM came out at 80%. The inhibition at 0.1 µM in assay [3] was 25%.
Turning to `C[C@]12CC[C@@H]3c4ccc(CCCO)cc4CC[C@H]3[C@@H]1C[C@H](Cc1cccc(C(N)=O)c1)[C@@H]2O` [Compound 24, 3-{[(16β,17β)-17-hydroxy-3-(3-hydroxypropyl)estra-1(10),2,4-trien-16-yl]methyl}benzamide], in assay [1] (setting [4]), the inhibition at 0.1 µM came out at 16%.
On to `C[C@]12CC[C@@H]3c4ccc(CCCBr)cc4CC[C@H]3[C@@H]1C[C@H](Cc1cccc(C(N)=O)c1)[C@@H]2O` [Compound 25, 3-{[(16β,17β)-3-(3-bromopropyl)-17-hydroxyestra-1(10),2,4-trien-16-yl]methyl}benzamide], for which the inhibition at 0.1 µM in assay [1] (read-out: Inhibition (0.1 μM)) was determined as 37%. In addition, the inhibition at 1 µM in assay [1] amounted to 82%.
The matching figures for `CNC(=O)Cc1ccc2c(c1)CC[C@@H]1[C@@H]2CC[C@]2(C)[C@@H](O)[C@@H](Cc3cccc(C(N)=O)c3)C[C@@H]12` [Compound 32, 3-{[(16β,17β)-17-hydroxy-3-[2-(methylamino)-2-oxoethyl]estra-1(10),2,4-trien-16-yl]methyl}benzamide]: 5% and 15%.
Regarding `CN(C)Cc1ccc2c(c1)CC[C@@H]1[C@@H]2CC[C@]2(C)[C@@H](O)[C@@H](Cc3cccc(C(N)=O)c3)C[C@@H]12` [Compound 40a, 3-{[(16β,17β)-3-[(dimethylamino)methyl]-17-hydroxyestra-1,3,5(10)-trien-16-yl]methyl}benzamide], the inhibition at 0.1 µM in assay [1] (setting [4]) was 12%. The inhibition at 1 µM in assay [1] (setting [5]) was 49%.
For `C[C@]12CC[C@@H]3c4ccc(CN5CCCC5)cc4CC[C@H]3[C@@H]1C[C@H](Cc1cccc(C(N)=O)c1)[C@@H]2O` [Compound 40c, 3-{[(16β,17β)-17-hydroxy-3-(pyrrolidin-1-ylmethyl)estra-1,3,5(10)-trien-16-yl]methyl}benzamide], in assay [1] (setting [4]), the inhibition at 0.1 µM came out at 1%. Moreover, the inhibition at 1 µM in assay [1] (setting [5]) came out at 28%.
Take `C[C@]12CC[C@@H]3c4ccc(C(=O)N5CCCC5)cc4CC[C@H]3[C@@H]1C[C@H](Cc1cccc(C(N)=O)c1)[C@@H]2O` [Compound 41c, 3-{[(16β,17β)-17-hydroxy-3-(pyrrolidin-1-ylcarbonyl)estra-1,3,5(10)-trien-16-yl]methyl}benzamide]: the inhibition at 0.1 µM in assay [1] (read-out: Inhibition (0.1 μM)) worked out at 0%. For the same molecule, in assay [1], the inhibition at 1 µM came out at 13%.
As for `C[C@]12CC[C@@H]3c4ccc(CBr)cc4CC[C@H]3[C@@H]1C[C@H](Cc1cccc(C(N)=O)c1)[C@@H]2O` [III, 3-{[(16β,17β)-3-(bromomethyl)-17-hydroxyestra-1,3,5(10)-trien-16-yl]methyl}benzamide], the inhibition at 0.01 µM in assay [1] (read-out: Inhibition % (0.01 μM)) amounted to 20%. Also, the inhibition at 0.1 µM in assay [1] (read-out: Inhibition % (0.1 μM)) came to 36%; in assay [1] (read-out: Inhibition (0.1 μM)) it was 19%. Further, the inhibition at 1 µM in assay [1] was 66%.

The record behind these values is patent publication US11072632B2, “Inhibitors of 17β-HSD1, 17β-HSD3 and 17β-HSD10” (UNIVERSITÉ LAVAL, priority 2011, dated 2021).
